Laboratory results from the NIST ThermoML archive (doi:10.1016/j.jct.2006.08.009).

Assay: mn = molality of the nth substance listed, in mol/kg
Conditions: 350 kPa, Liquid; for apparent molar heat capacity: Extra sensitive DSC

OC[C@@H](O)[C@H](O)[C@H](O)[C@@H](O)CO [dulcitol] + O
Conditions	apparent molar heat capacity [J/K/mol]	mass density [kg/m3]
278.15 K, m1 = 0.0188	374	1001.19
278.15 K, m1 = 0.0418	369	1002.77
278.15 K, m1 = 0.0698	379.2	1004.44
278.15 K, m1 = 0.0986	380.1	1006.47
278.15 K, m1 = 0.119	370.3	1007.99
278.15 K, m1 = 0.1492	379.2	1009.86
283.15 K, m1 = 0.0188	394	1000.99
283.15 K, m1 = 0.0418	389	1002.48
283.15 K, m1 = 0.0698	397.8	1004.2
283.15 K, m1 = 0.0986	398.6	1006.13
283.15 K, m1 = 0.119	388.5	1007.58
283.15 K, m1 = 0.1492	397.5	1009.47
288.15 K, m1 = 0.0188	409	1000.42
288.15 K, m1 = 0.0418	405	1001.85
288.15 K, m1 = 0.0698	412.3	1003.61
288.15 K, m1 = 0.0986	413.3	1005.5
288.15 K, m1 = 0.119	402.7	1006.94
288.15 K, m1 = 0.1492	412	1008.75
293.15 K, m1 = 0.0188	423	–
293.15 K, m1 = 0.0418	418	–
293.15 K, m1 = 0.0698	425.3	–
293.15 K, m1 = 0.0986	426.5	–
293.15 K, m1 = 0.119	416.6	–
293.15 K, m1 = 0.1492	425	–
298.15 K, m1 = 0.0188	434	998.35
298.15 K, m1 = 0.0418	430	999.74
298.15 K, m1 = 0.0698	436.4	1001.5
298.15 K, m1 = 0.0986	437.6	1003.47
298.15 K, m1 = 0.119	428.5	1004.74
298.15 K, m1 = 0.1492	436.1	1006.52
303.15 K, m1 = 0.0188	444	–
303.15 K, m1 = 0.0418	439	–
303.15 K, m1 = 0.0698	446	–
303.15 K, m1 = 0.0986	447.4	–
303.15 K, m1 = 0.119	438.9	–
303.15 K, m1 = 0.1492	445.8	–
308.15 K, m1 = 0.0188	453	995.36
308.15 K, m1 = 0.0418	448	996.65
308.15 K, m1 = 0.0698	454.4	998.44
308.15 K, m1 = 0.0986	456	1000.21
308.15 K, m1 = 0.119	447.9	1001.54
308.15 K, m1 = 0.1492	454.3	1003.38
313.15 K, m1 = 0.0188	461	–
313.15 K, m1 = 0.0418	455.7	–
313.15 K, m1 = 0.0698	462.1	–
313.15 K, m1 = 0.0986	463.5	–
313.15 K, m1 = 0.119	456	–
313.15 K, m1 = 0.1492	461.9	–
318.15 K, m1 = 0.0188	468	991.52
318.15 K, m1 = 0.0418	462.7	992.87
318.15 K, m1 = 0.0698	468.8	994.59
318.15 K, m1 = 0.0986	470.3	996.35
318.15 K, m1 = 0.119	463.3	997.6
318.15 K, m1 = 0.1492	468.7	999.44
323.15 K, m1 = 0.0188	475	–
323.15 K, m1 = 0.0418	469	–
323.15 K, m1 = 0.0698	474.9	–
323.15 K, m1 = 0.0986	476.5	–
323.15 K, m1 = 0.119	469.8	–
323.15 K, m1 = 0.1492	474.8	–
328.15 K, m1 = 0.0188	481	986.98
328.15 K, m1 = 0.0418	474.7	988.34
328.15 K, m1 = 0.0698	480.5	990.01
328.15 K, m1 = 0.0986	482.1	991.76
328.15 K, m1 = 0.119	475.7	993.01
328.15 K, m1 = 0.1492	480.4	994.81
333.15 K, m1 = 0.0188	486	–
333.15 K, m1 = 0.0418	479.8	–
333.15 K, m1 = 0.0698	485.6	–
333.15 K, m1 = 0.0986	487.2	–
333.15 K, m1 = 0.119	481	–
333.15 K, m1 = 0.1492	485.5	–
338.15 K, m1 = 0.0188	491	981.81
338.15 K, m1 = 0.0418	484.5	983.19
338.15 K, m1 = 0.0698	490.1	984.85
338.15 K, m1 = 0.0986	491.8	986.55
338.15 K, m1 = 0.119	486	987.85
338.15 K, m1 = 0.1492	490.1	989.64
343.15 K, m1 = 0.0188	495	–
343.15 K, m1 = 0.0418	488.6	–
343.15 K, m1 = 0.0698	494.2	–
343.15 K, m1 = 0.0986	495.9	–
343.15 K, m1 = 0.119	490.4	–
343.15 K, m1 = 0.1492	494.3	–
348.15 K, m1 = 0.0188	499	976.1
348.15 K, m1 = 0.0418	492.2	977.46
348.15 K, m1 = 0.0698	497.9	979.12
348.15 K, m1 = 0.0986	499.6	980.85
348.15 K, m1 = 0.119	494.4	982.09
348.15 K, m1 = 0.1492	497.9	983.86
353.15 K, m1 = 0.0188	502	–
353.15 K, m1 = 0.0418	495.4	–
353.15 K, m1 = 0.0698	501.2	–
353.15 K, m1 = 0.0986	502.9	–
353.15 K, m1 = 0.119	498.1	–
353.15 K, m1 = 0.1492	501.2	–
358.15 K, m1 = 0.0188	504	969.86
358.15 K, m1 = 0.0418	498.1	971.46
358.15 K, m1 = 0.0698	503.5	972.88
358.15 K, m1 = 0.0986	505.2	974.54
358.15 K, m1 = 0.119	501.3	975.86
358.15 K, m1 = 0.1492	503.6	977.9
363.15 K, m1 = 0.0188	506	–
363.15 K, m1 = 0.0418	499.6	–
363.15 K, m1 = 0.0698	504.4	–
363.15 K, m1 = 0.0986	505.7	–
363.15 K, m1 = 0.119	504.1	–
363.15 K, m1 = 0.1492	504.3	–
368.15 K, m1 = 0.0188	–	963.12
368.15 K, m1 = 0.0418	–	964.48
368.15 K, m1 = 0.0698	–	966.14
368.15 K, m1 = 0.0986	–	967.86
368.15 K, m1 = 0.119	–	969.19
368.15 K, m1 = 0.1492	–	970.84
